Measured values as given in US20020035061A1, “COMPOSITIONS AND METHODS FOR TREATING INFECTIONS USING CATIONIC PEPTIDES ALONE OR IN COMBINATION WITH ANTIBIOTICS” (priority 1996, published 2002).

Tests used:
Assay in all cases: microbe, parasite or virus in culture
Type in all cases: cell-based
[1] = tested on: microorganisms with acquired resistance
[2] = tested on: S. aureus; details: S. aureus SA25
[3] = tested on: bacterial isolates
[4] = tested on: vancomycin / teicoplanin resistant enterococci; details: for Vancomycin MIC + Peptide: in combination with the labelled peptide; for Peptide MIC + Vancomycin: in combination with vancomycin
[5] = tested on: inherently resistant microorganisms; details: B. cepacia

KWKSFIKKLTSAAKKVLTTGLPALIS [MBI 29A3]
Gentamicin MIC + Peptide ([1]; A. baumannii ABI002): 4 µg/mL | Peptide MIC + Gentamicin ([1]; A. baumannii ABI002): 1 µg/mL | Peptide MIC Alone ([1]; A. baumannii ABI002, Gentamicin section): 2 µg/mL | Peptide MIC + Tobramycin ([1]; E. coli EC0006): 2 µg/mL | Tobramycin MIC + Peptide ([1]; E. coli EC0006): 2 µg/mL | Peptide MIC Alone ([1]; E. coli EC0006, Tobramycin section): 4 µg/mL | Peptide MIC + Tobramycin ([1]; P. aeruginosa PA022): 0.25 µg/mL | Tobramycin MIC + Peptide ([1]; P. aeruginosa PA022): 4 µg/mL | Peptide MIC Alone ([1]; P. aeruginosa PA022, Tobramycin section): 4 µg/mL | Gentamicin MIC + Peptide ([1]; P. aeruginosa PA041): 4 µg/mL | Peptide MIC + Gentamicin ([1]; P. aeruginosa PA041): 4 µg/mL | Ciprofloxacin MIC + Peptide ([1]; P. aeruginosa PA41): 0.5 µg/mL | Peptide MIC + Ciprofloxacin ([1]; P. aeruginosa PA41): 4 µg/mL | Peptide MIC Alone ([1]; P. aeruginosa PA41, Ciprofloxacin section): 8 µg/mL | Peptide MIC Alone ([1]; P. aeruginosa PA041, Gentamicin section): 8 µg/mL | Peptide MIC ([1]; S. aureus, combination with Mupirocin, in µg/mL): 4 | Peptide MIC + Tobramycin ([1]; S. maltophilia SMA027): 16 µg/mL | Tobramycin MIC + Peptide ([1]; S. maltophilia SMA027): 4 µg/mL | Peptide MIC Alone ([1]; S. maltophilia SMA027, Tobramycin section): 32 µg/mL | Peptide MIC + Tobramycin ([1]; S. maltophilia SMA029): 4 µg/mL | Tobramycin MIC + Peptide ([1]; S. maltophilia SMA029): 4 µg/mL | Peptide MIC Alone ([1]; S. maltophilia SMA029, Tobramycin section): 16 µg/mL | FIC ([1]; peptide + Tobramycin, E. coli EC0006): 0.75 | Ciprofloxacin MIC + Peptide [2]: 1 µg/mL | Peptide MIC + Ciprofloxacin [2]: 0.5 µg/mL | Peptide MIC Alone ([3]; 1. Amikacin, B. cepacia BC003): >128 µg/mL | Peptide MIC Alone ([3]; 1. Amikacin, B. cepacia BC005): >128 µg/mL | Peptide MIC Alone ([3]; 1. Amikacin, E. faecium EFM004): 8 µg/mL | Peptide MIC Alone ([3]; 1. Amikacin, S. maltophilia SMA036): 64 µg/mL | Peptide MIC Alone ([3]; 1. Amikacin, S. maltophilia SMA063): 8 µg/mL | Peptide MIC Alone ([3]; 1. Amikacin, S. maltophilia SMA064): 8 µg/mL | Peptide MIC Alone ([3]; 4. Gentamicin, S. maltophilia SMA019): 2 µg/mL | Peptide MIC Alone ([3]; 4. Gentamicin, S. maltophilia SMA021): 2 µg/mL | Amikacin MIC + Peptide ([3]; B. cepacia BC003): 8 µg/mL | Peptide MIC + Amikacin ([3]; B. cepacia BC003): 64 µg/mL | Amikacin MIC + Peptide ([3]; B. cepacia BC005): 32 µg/mL | Peptide MIC + Amikacin ([3]; B. cepacia BC005): 32 µg/mL | Peptide MIC + Vancomycin ([3]; E. faecalis EFS003): 2 µg/mL | Vancomycin MIC + Peptide ([3]; E. faecalis EFS003): 2 µg/mL | Peptide MIC + Vancomycin ([3]; E. faecalis EFS005): 1 µg/mL | Vancomycin MIC + Peptide ([3]; E. faecalis EFS005): 4 µg/mL | Peptide MIC + Vancomycin ([3]; E. faecalis EFS011): 8 µg/mL | Vancomycin MIC + Peptide ([3]; E. faecalis EFS011): 4 µg/mL | Peptide MIC + Vancomycin ([3]; E. faecalis EFS014): 0.5 µg/mL | Vancomycin MIC + Peptide ([3]; E. faecalis EFS014): 1 µg/mL | Amikacin MIC + Peptide ([3]; E. faecium EFM004): 8 µg/mL | Peptide MIC + Amikacin ([3]; E. faecium EFM004): 4 µg/mL | Peptide MIC + Vancomycin ([3]; E. faecium EFM006): 2 µg/mL | Vancomycin MIC + Peptide ([3]; E. faecium EFM006): 4 µg/mL | Mupirocin MIC + Peptide ([3]; P. aeruginosa PA2): 0.1 µg/mL | Peptide MIC + Mupirocin ([3]; P. aeruginosa PA2): 16 µg/mL | Mupirocin MIC + Peptide ([3]; P. aeruginosa PA3): 0.1 µg/mL | Peptide MIC + Mupirocin ([3]; P. aeruginosa PA3): 8 µg/mL | Peptide MIC + Tobramycin ([3]; P. aeruginosa PA022): 0.25 µg/mL | Tobramycin MIC + Peptide ([3]; P. aeruginosa PA022): 4 µg/mL | Ciprofloxacin MIC + Peptide ([3]; P. aeruginosa PA24): 16 µg/mL | Peptide MIC + Ciprofloxacin ([3]; P. aeruginosa PA24): 0.125 µg/mL | Peptide MIC + Tobramycin ([3]; P. aeruginosa PA028): 0.125 µg/mL | Tobramycin MIC + Peptide ([3]; P. aeruginosa PA028): 16 µg/mL | Peptide MIC + Tobramycin ([3]; P. aeruginosa PA029): 0.125 µg/mL | Tobramycin MIC + Peptide ([3]; P. aeruginosa PA029): 16 µg/mL | Ciprofloxacin MIC + Peptide ([3]; P. aeruginosa PA41): 0.5 µg/mL | Peptide MIC + Ciprofloxacin ([3]; P. aeruginosa PA41): 4 µg/mL | Ciprofloxacin MIC + Peptide ([3]; S. aureus SA10): 16 µg/mL | Peptide MIC + Ciprofloxacin ([3]; S. aureus SA10): 0.5 µg/mL | Ciprofloxacin MIC + Peptide ([3]; S. aureus SA25): 2 µg/mL | Peptide MIC + Ciprofloxacin ([3]; S. aureus SA25): 0.125 µg/mL | Gentamicin MIC + Peptide ([3]; S. maltophilia SMA019): 16 µg/mL | Peptide MIC + Gentamicin ([3]; S. maltophilia SMA019): 0.125 µg/mL | Gentamicin MIC + Peptide ([3]; S. maltophilia SMA021): 16 µg/mL | Peptide MIC + Gentamicin ([3]; S. maltophilia SMA021): 0.125 µg/mL | Peptide MIC + Tobramycin ([3]; S. maltophilia SMA029): 4 µg/mL | Tobramycin MIC + Peptide ([3]; S. maltophilia SMA029): 4 µg/mL | Peptide MIC + Tobramycin ([3]; S. maltophilia SMA030): 4 µg/mL | Tobramycin MIC + Peptide ([3]; S. maltophilia SMA030): 4 µg/mL | Amikacin MIC + Peptide ([3]; S. maltophilia SMA036): 32 µg/mL | Peptide MIC + Amikacin ([3]; S. maltophilia SMA036): 16 µg/mL | Amikacin MIC + Peptide ([3]; S. maltophilia SMA063): 16 µg/mL | Peptide MIC + Amikacin ([3]; S. maltophilia SMA063): 4 µg/mL | Amikacin MIC + Peptide ([3]; S. maltophilia SMA064): 16 µg/mL | Peptide MIC + Amikacin ([3]; S. maltophilia SMA064): 4 µg/mL | Mupirocin MIC + Peptide ([3]; S. marcescens SBSM1): 100 µg/mL | Peptide MIC + Mupirocin ([3]; S. marcescens SBSM1): 16 µg/mL | Mupirocin MIC + Peptide ([3]; S. marcescens SBSM2): 100 µg/mL | Peptide MIC + Mupirocin ([3]; S. marcescens SBSM2): 64 µg/mL | FIC ([3]; peptide + Amikacin, B. cepacia BC003): 0.50 | FIC ([3]; peptide + Amikacin, B. cepacia BC005): 0.38 | FIC ([3]; peptide + Amikacin, E. faecium EFM004): 0.56 | FIC ([3]; peptide + Amikacin, S. maltophilia SMA036): 0.38 | FIC ([3]; peptide + Amikacin, S. maltophilia SMA063): 0.56 | FIC ([3]; peptide + Amikacin, S. maltophilia SMA064): 0.56 | FIC ([3]; peptide + Ciprofloxacin, P. aeruginosa PA24): 0.50 | FIC ([3]; peptide + Ciprofloxacin, P. aeruginosa PA41): 0.63 | FIC ([3]; peptide + Ciprofloxacin, S. aureus SA10): 0.75 | FIC ([3]; peptide + Ciprofloxacin, S. aureus SA25): 0.63 | FIC ([3]; peptide + Mupirocin, P. aeruginosa PA2): 0.50 | FIC ([3]; peptide + Mupirocin, P. aeruginosa PA3): 0.50 | FIC ([3]; peptide + Mupirocin, S. marcescens SBSM1): 0.16 | FIC ([3]; peptide + Mupirocin, S. marcescens SBSM2): 0.35 | FIC ([3]; peptide + Vancomycin, E. faecalis EFS003): 0.56 | FIC ([3]; peptide + Vancomycin, E. faecalis EFS005): 0.28 | FIC ([3]; peptide + Vancomycin, E. faecalis EFS011): 0.50 | FIC ([3]; peptide + Vancomycin, E. faecalis EFS014): 0.52 | FIC ([3]; peptide + Vancomycin, E. faecium EFM006): 0.52 | Amikacin MIC + Peptide ([4]; E. faecium EFM004): 8 µg/mL | Peptide MIC + Amikacin ([4]; E. faecium EFM004): 4 µg/mL | Amikacin MIC + Peptide ([4]; E. faecium EFM020): 16 µg/mL | Peptide MIC + Amikacin ([4]; E. faecium EFM020): 2 µg/mL | Vancomycin MIC + Peptide ([4]; E. faecalis EFS005): 1 µg/mL | Vancomycin MIC + Peptide ([4]; E. faecalis EFS011): 4 µg/mL | Vancomycin MIC + Peptide ([4]; E. faecalis EFS014): 1 µg/mL | Vancomycin MIC + Peptide ([4]; E. faecium EFM006): 4 µg/mL | Peptide MIC + Vancomycin ([4]; E. faecalis EFS005): 4 µg/mL | Peptide MIC + Vancomycin ([4]; E. faecalis EFS011): 8 µg/mL | Peptide MIC + Vancomycin ([4]; E. faecalis EFS014): 0.5 µg/mL | Peptide MIC + Vancomycin ([4]; E. faecium EFM006): 2 µg/mL | Peptide MIC + Amikacin [5]: 32 µg/mL | Peptide MIC Alone ([5]; Amikacin section): >128 µg/mL
